Measurements from ChEMBL document CHEMBL1201862, “PubChem BioAssay data set” (2004).
Where a name gives a salt, the structure may show the parent alone. The source made the active and inactive calls.

Tests used:
[1] = system: BJ; assay: cells; type: functional, cell-based; conditions: Homo sapiens
[2] = system: BJ; assay: BJ-TERT fibroblast viability loss – cell-based, RAS-independent, luminescence, dose response (AID 1933); type: functional; conditions: Homo sapiens
[3] = DRD fibroblast viability loss – cell-based, non-viral oncogenic, luminescence, dose response (AID 1934); type: functional; conditions: Homo sapiens
[4] = system: Vero; assay: cells; type: functional; conditions: Chlorocebus sabaeus
[5] = system: BJ; assay: BJ-TERT-LT-ST fibroblast viability loss – cell-based, RAS-independent, luminescence, dose response (AID 1935); type: functional; conditions: Homo sapiens;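 also: BJ fibroblasts immortalized with TERT plus LT and ST oncogenes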
[6] = reduction of Shn3 3'UTR-driven luciferase in osteoblasts – cell-based, Clone20 osteoblasts, firefly luciferase, cherry-picked, dose response (AID 624132); type: functional;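 also: firefly luciferase luminescence from reporter carrying the Shn3 3'UTR in osteoblasts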
[7] = loss of viability in HepG2 cells – cell-based, CellTiter-Glo, cherry-picked, cytotoxicity control for Shn3 inhibitor project, dose response (AID 624134); type: functional
[8] = Fluorescence-based cell-based high throughput dose response assay for inhibitors of the interaction of nucleotide-binding oligomerization domain containing 2 (NOD2) and the receptor-interacting serine-threonine kinase 2 (RIPK2).; type: functional, Homo sapiens; conditions: Homo sapiens
[9] = system: BJ; assay: growth inhibition of engineered Ras-driven BJ cells – cell-based, alamar blue fluorescence, cherrypicked samples, dose response (AID 2631); type: functional; conditions: Homo sapiens;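 also: confirmatory dose-response assay in RAS-dependent BJ fibroblasts engineered with TERT, LT and ST, with cytotoxicity read by fluorescence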
[10] = non-specific 3'UTR reporter inhibition in Clone20-Shn3RL – cell-based, Renilla luciferase, cherry-picked, counter-screen for Shn3 inhibitor project, dose response (AID 624133); type: functional
[11] = biological target: DNA (cytosine-5)-methyltransferase 1 (Homo sapiens, UniProt P26358); assay: inhibition of DNA methylation by DNMT1 – biochemical, fluorescent molecular beacon, confirmation (AID 602386); type: functional
DNA (cytosine-5)-methyltransferase 1, sequence (P26358 whole entry): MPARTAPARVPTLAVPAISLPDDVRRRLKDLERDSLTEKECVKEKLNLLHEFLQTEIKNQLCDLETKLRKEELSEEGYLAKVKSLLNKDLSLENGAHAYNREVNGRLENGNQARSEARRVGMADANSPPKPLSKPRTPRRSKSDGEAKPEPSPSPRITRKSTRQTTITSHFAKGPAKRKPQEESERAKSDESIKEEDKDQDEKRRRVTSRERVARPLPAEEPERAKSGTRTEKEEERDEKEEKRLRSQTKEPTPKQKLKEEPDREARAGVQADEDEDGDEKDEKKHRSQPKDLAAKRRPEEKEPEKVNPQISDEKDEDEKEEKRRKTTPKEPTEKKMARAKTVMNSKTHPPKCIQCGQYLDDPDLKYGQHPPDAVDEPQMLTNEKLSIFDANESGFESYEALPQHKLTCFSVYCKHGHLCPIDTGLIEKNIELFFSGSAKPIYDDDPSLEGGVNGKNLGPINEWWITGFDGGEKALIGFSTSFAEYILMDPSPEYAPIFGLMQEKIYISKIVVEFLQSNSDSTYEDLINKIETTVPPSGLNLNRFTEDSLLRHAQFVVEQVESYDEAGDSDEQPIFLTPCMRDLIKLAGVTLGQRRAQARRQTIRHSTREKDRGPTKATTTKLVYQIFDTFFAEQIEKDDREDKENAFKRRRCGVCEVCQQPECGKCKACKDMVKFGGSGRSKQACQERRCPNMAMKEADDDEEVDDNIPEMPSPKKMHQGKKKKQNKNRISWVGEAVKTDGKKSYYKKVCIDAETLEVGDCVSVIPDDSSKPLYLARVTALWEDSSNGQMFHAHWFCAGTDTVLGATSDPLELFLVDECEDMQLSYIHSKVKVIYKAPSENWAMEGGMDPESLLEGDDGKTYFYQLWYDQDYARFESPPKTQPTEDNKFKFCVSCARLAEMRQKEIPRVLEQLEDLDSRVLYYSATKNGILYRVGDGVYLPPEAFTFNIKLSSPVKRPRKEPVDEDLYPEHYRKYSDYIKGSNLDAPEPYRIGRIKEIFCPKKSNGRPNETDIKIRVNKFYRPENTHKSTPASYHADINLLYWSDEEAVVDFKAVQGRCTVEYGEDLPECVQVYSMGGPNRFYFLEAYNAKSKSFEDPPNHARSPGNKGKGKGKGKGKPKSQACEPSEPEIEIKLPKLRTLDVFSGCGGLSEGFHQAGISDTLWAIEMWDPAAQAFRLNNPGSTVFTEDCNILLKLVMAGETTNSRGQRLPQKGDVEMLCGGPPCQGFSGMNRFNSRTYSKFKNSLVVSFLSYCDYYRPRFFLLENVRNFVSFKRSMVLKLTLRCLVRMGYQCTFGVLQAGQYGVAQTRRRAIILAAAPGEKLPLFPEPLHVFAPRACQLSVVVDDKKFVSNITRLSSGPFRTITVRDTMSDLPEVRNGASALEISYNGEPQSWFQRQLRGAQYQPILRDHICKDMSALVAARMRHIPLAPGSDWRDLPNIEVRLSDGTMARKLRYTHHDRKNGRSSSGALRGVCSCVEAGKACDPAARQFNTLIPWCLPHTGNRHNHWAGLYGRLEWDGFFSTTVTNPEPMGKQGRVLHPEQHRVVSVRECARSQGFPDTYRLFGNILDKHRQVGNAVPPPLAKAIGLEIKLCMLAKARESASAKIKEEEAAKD

[12] = biological target: T1, Streptokinase A (Streptococcus pyogenes serotype M1, UniProt P10520); assay: viability-normalized secreted streptokinase activity reduction – plasminogen activation absorbance, OD405, dose response (AID 1914); type: functional, Streptococcus pyogenes M1 GAS;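 also: secreted streptokinase activity via plasminogen activation per viability signal from cell pellet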
T1 sequence (P10520 whole entry): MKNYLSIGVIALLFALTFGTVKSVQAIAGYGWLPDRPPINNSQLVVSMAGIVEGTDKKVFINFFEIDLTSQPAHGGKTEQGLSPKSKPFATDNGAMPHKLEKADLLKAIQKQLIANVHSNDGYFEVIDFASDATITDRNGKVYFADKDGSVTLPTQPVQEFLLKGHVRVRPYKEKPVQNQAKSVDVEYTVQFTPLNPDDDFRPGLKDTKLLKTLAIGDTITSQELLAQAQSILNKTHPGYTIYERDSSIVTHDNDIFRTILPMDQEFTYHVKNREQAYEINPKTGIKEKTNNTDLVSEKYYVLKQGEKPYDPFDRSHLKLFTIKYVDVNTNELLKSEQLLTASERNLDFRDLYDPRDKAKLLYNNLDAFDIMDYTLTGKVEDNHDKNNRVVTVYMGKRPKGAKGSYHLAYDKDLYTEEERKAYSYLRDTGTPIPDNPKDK

[13] = system: Streptococcus sp. 'group A'; assay: Streptococcus pyogenes SK(-)GAS viability under kanamycin – luminescence, BacTiterGlo, confirmation, counter-screen for streptokinase expression inhibitor project, dose response (AID 1900); type: functional, organism-based
[14] = system: Streptococcus; assay: GAS UMAA2166 growth inhibition – luminescence, BacTiterGlo, counter-screen for streptokinase expression inhibitor project, dose response (AID 1915); type: functional, organism-based;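 also: potency for reduction of bacterial viability or growth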
[15] = biological target: T2, Coagulation factor XII (Homo sapiens, UniProt P00748); assay: Factor XIIa Dose Response Confirmation from Single Well HTS. [Related pubchem assays (depositor defined):AID701]; type: functional
T2 sequence (P00748 whole entry): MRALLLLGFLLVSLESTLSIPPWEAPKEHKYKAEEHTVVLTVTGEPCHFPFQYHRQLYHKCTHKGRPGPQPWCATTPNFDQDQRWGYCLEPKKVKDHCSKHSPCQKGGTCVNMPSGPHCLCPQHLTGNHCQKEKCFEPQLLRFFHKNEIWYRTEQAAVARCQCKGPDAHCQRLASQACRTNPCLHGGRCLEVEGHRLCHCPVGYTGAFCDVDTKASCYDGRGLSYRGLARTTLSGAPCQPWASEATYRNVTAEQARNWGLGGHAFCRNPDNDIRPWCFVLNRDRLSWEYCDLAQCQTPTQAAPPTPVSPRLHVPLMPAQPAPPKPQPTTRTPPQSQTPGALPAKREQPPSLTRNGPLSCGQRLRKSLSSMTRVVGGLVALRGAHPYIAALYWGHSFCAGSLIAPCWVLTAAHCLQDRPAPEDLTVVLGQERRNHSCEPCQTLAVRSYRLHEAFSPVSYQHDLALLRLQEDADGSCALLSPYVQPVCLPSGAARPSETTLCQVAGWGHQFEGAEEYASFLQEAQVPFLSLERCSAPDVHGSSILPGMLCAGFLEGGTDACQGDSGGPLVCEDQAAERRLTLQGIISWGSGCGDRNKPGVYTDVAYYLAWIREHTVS

[16] = biological target: Ras and Rab interactor 1/Tyrosine-protein kinase ABL1 (Homo sapiens, UniProt P00519+Q13671); type: functional;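 also: biochemical TR-FRET dose-response test measuring inhibition of binding between Rin1 and Abl proteins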
Ras and Rab interactor 1/Tyrosine-protein kinase ABL1, sequence (P00519 whole entry): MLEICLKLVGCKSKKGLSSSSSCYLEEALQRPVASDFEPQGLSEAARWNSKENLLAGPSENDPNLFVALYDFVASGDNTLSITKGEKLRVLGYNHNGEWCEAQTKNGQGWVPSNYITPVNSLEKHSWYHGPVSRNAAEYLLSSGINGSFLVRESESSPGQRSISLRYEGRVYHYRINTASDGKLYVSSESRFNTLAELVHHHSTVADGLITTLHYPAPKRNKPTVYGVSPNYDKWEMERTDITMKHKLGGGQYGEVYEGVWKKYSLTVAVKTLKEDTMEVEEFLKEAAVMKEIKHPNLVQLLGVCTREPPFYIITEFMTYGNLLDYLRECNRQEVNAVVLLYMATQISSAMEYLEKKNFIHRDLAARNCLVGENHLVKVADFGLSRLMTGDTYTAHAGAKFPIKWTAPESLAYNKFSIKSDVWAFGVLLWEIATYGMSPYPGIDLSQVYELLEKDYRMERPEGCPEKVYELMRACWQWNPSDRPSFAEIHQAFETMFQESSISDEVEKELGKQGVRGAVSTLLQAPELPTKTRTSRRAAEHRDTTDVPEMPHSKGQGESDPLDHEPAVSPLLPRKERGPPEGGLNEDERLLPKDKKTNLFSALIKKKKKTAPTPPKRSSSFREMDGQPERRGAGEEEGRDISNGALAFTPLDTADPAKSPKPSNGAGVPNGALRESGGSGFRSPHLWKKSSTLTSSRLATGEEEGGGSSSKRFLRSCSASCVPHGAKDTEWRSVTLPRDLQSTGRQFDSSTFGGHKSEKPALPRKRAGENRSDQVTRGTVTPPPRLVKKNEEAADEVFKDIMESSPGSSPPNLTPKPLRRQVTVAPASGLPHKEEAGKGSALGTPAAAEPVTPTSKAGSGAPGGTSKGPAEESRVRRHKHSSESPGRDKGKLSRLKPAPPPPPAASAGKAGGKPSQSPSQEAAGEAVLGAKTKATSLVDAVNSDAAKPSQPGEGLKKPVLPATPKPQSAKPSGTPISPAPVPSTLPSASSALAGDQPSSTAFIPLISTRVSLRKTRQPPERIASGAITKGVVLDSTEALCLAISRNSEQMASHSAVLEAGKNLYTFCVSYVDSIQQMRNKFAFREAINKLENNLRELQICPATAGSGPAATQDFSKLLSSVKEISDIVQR
Ras and Rab interactor 1/Tyrosine-protein kinase ABL1, sequence (Q13671 whole entry): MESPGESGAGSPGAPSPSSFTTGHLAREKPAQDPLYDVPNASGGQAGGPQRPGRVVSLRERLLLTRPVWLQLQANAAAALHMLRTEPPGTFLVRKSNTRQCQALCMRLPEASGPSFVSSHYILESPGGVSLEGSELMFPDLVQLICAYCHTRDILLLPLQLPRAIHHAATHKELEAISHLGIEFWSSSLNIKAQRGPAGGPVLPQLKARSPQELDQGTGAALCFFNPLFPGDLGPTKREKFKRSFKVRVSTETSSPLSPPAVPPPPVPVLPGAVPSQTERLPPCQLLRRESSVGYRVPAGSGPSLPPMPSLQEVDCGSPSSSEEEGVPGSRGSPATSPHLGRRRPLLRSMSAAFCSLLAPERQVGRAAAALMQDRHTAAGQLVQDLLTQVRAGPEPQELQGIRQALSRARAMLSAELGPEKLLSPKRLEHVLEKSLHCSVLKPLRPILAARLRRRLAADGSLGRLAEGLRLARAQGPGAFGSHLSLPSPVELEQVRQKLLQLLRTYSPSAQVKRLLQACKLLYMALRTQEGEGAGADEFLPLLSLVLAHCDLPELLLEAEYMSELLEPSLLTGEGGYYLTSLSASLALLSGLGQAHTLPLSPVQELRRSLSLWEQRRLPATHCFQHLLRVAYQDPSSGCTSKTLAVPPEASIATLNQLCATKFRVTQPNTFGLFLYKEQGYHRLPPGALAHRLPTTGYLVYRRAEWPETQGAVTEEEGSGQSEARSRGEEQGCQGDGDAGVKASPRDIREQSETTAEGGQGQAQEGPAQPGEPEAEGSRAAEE

[17] = system: HEK293; assay: EBV LMP1 TES2 canonical NF-kB signalling blockers – cell-based, HEK293, luciferase, cherry-pick, dose response (AID 588343); type: functional; conditions: Homo sapiens
[18] = biological target: Dual specificity tyrosine-phosphorylation-regulated kinase 1A (Rattus norvegicus, UniProt Q63470); type: biochemical, Homo sapiens
[19] = biological target: Prothrombin (Bos taurus, UniProt P00735); assay: thrombin protease inhibitors – biochemical, fluorescence polarization, uHTS hits, dose response (AID 602369); type: functional
[20] = biological target: T3, Rac GTPase-activating protein 1 (Homo sapiens, UniProt Q9H0H5); assay: blockers of MgcRacGAP-driven Rac1 GTP hydrolysis – biochemical, ADP Hunter fluorescence, primary and confirmatory, confirmation (AID 624330); type: functional
T3 sequence (Q9H0H5 whole entry): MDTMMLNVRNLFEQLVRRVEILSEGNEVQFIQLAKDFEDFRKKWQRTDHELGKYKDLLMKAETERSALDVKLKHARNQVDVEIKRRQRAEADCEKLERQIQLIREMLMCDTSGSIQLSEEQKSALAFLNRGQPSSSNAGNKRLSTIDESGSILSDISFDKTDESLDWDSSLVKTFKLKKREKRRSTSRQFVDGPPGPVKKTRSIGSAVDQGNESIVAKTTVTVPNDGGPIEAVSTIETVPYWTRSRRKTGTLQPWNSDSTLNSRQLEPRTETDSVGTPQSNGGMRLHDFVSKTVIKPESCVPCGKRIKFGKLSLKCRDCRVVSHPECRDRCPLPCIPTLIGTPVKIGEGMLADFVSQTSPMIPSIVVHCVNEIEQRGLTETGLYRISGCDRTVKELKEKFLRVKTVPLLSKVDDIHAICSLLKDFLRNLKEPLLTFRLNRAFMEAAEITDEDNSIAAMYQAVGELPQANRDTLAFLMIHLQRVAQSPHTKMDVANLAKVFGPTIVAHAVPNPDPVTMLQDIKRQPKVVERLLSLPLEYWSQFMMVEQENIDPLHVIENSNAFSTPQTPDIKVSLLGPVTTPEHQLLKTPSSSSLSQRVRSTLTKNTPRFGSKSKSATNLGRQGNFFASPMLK

[21] = biological target: 72 kDa type IV collagenase (Homo sapiens, UniProt P08253); assay: Dose Response validation of uHTS RPN11 inhibitor hits using a MMP-2 Fluorescence assay.; type: functional
72 kDa type IV collagenase, sequence (P08253 whole entry): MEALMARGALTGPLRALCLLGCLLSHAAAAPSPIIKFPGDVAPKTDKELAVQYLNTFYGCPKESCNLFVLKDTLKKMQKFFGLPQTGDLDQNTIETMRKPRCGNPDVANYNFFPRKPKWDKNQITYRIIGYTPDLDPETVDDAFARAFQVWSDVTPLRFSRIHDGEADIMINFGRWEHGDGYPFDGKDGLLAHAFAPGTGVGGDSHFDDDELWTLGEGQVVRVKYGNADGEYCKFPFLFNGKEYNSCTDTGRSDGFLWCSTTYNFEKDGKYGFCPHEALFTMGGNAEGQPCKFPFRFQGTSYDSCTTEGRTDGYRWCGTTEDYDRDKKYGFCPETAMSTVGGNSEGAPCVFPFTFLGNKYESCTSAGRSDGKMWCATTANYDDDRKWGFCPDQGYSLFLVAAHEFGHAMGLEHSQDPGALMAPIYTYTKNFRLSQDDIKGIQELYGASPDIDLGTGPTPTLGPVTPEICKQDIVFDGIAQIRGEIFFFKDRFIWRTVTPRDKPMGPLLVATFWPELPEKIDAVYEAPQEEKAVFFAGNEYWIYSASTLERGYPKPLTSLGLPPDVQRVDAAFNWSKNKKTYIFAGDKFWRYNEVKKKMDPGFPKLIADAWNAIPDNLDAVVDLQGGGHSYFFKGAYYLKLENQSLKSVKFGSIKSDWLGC

[22] = biological target: 26S proteasome non-ATPase regulatory subunit 14 (Homo sapiens, UniProt O00487); assay: inhibition of proteasome subunit RPN11 – biochemical, fluorescence polarization, uHTS hits, confirmation (AID 602368); type: functional
26S proteasome non-ATPase regulatory subunit 14, sequence (O00487 whole entry): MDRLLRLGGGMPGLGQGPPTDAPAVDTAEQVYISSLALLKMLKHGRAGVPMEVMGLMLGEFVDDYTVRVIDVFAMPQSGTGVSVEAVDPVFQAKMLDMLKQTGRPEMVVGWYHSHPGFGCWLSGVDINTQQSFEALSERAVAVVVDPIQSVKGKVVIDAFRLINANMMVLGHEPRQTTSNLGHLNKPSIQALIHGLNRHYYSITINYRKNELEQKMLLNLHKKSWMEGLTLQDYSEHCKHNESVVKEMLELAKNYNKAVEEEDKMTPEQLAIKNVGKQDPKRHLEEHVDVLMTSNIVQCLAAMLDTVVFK

[23] = viability of uninfected HEp-2 cells – cell-based, HTS, cytotoxicity control for RSV inhibitor project, dose response (AID 2410); type: functional; conditions: human respiratory syncytial virus
[24] = biological target: T4, Low molecular weight phosphotyrosine protein phosphatase (Homo sapiens, UniProt P24666); type: functional; conditions: read-out: IC50_Mean;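 also: Dose-response confirmation assay measuring inhibition of LMPTP enzyme activity by fluorescence intensity read-out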
T4 sequence (P24666 whole entry): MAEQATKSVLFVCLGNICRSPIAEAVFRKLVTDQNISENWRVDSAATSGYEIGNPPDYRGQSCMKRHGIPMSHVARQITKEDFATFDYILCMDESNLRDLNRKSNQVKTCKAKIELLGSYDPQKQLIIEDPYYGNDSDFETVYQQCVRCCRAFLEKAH

CCN(CC)CCN1C(=O)/C(=C\c2ccc(Cl)c([N+](=O)[O-])c2)S/C1=N\c1ccc(OC)cc1
EC50 [1]: 4.01 µM (active)
EC50 [2]: 2.1 µM (active)
EC50 [3]: 2.86 µM (active)
CC50 [4]: 15.7 µM (active)
EC50 [5]: 1.65 µM (active)
AC50 [6]: 2.11 µM (active)
AC50 [7]: 16.8 µM (active)
IC50 [8]: 2.75 µM (active)
EC50 [9]: 0.537 µM (active)
AC50 [10]: 10.4 µM (active)

COc1ccc(-c2nn(-c3ccccc3)cc2/C=C2/SC(=S)N(CCC(=O)O)C2=O)cc1
IC50 [11]: 5.06 µM (active)
EC50 [12]: > 150 µM (not active)
EC50 [13]: 2.14 µM (active)
EC50 [14]: 4.88 µM (active)

CC(=O)c1ccc(OC(=O)c2ccc(Br)o2)cc1
IC50 [15]: 18.5 µM (active)

COCCN(CCOC)C(=O)CSc1ccc(S(=O)(=O)N2CCN(C)CC2)cn1
IC50 [16]: 20.5 µM (inactive)

OC(CCCN1CCCCC1)(c1ccccc1)c1ccccc1 [DIPHENIDOL HYDROCHLORIDE]
AC50 [17]: 323 µM (active)

COc1cc(/C=C2\SC(N)=NC2=O)cc(Cl)c1O
AC50 [18]: 18.6 µM (active)
IC50 [19]: 32.8 µM (active)
IC50 [20]: 43.6 µM (active)
IC50 [21]: > 100 µM (inactive)
IC50 [22]: 26.8 µM (active)

O=C(Nc1nc2n(n1)C(c1ccc(Cl)cc1)CC(c1ccc(Cl)cc1)N2)c1ccco1 (stereo not drawn)
IC50 [15]: > 50 µM (inactive)
CC50 [23]: 12.8 µM (active)

CC(C1SC(=S)NC1=O)C1SC(=S)NC1=O (stereo not drawn)
IC50 [19]: 52.4 µM (active)
IC50 [24]: 80 µM (inactive)
IC50 [21]: > 100 µM (inactive)
IC50 [22]: 45.4 µM (active)
